From PMC8901636, “Preclinical studies of Flonoltinib Maleate, a novel JAK2/FLT3 inhibitor, in treatment of JAK2^V617F-induced myeloproliferative neoplasms” (Blood Cancer Journal, 2022)

Tests used:
JAK1/TYK2 pathway = experiment: Cytokine-stimulated cell-based assay, IFN-α-induced p-STAT1; settings: western blotting
CD34^+ cells = experiment: CD34+ cells in peripheral blood of normal mice; type: in vivo; settings: normal BALB/c mice; 30 mg/kg p.o. twice a day; Day 0-21
Description: (§1) To further understand the effect of FM on normal mice and normal human CD34^+ cells, we conducted a further analysis on CD34^+ cells. For normal mice, we measured the proportion of CD34^+ in the peripheral blood of BALB/c mice on Day 0, and then mice were treated with FM 30 mg/kg p.o. twice a day. […] To investigate the effect of FM on normal human CD34^+ cells, we collected mononuclear cells of PB acquired from healthy donors. […] Therefore, in the future phase I clinical trials, we should examine the myelosuppressive effects of FM in patients with MPN.
(§2) (A) Normal BALB/c mice were treated with vehicle and FM 30mg/kg p.o. twice a day. FACS analysis of the percentage of CD34^+ cells on Day 0, 7, 14 and 21 (n = 7). (B) Mononuclear cells were isolated from the PB of healthy donors and CD34^+ cells were analyzed after incubated with FM after 48h.

JAK1/JAK2 [1] = experiment: Cytokine-stimulated cell-based assay, IFN-γ-induced p-STAT1 in U2OS cells; settings: Homo sapiens
Molm-13 = experiment: MTT assay for cell proliferation; type: cell-based; settings: Homo sapiens, MOLM-13, 72 h, read-out: IC50(μM) ± SD, tumor cell proliferation
Description: For in vitro inhibition assays, cells were seeded in 96-well culture plates with a density of 15,000–20,000 cells/well after the cells reached 70–90% confluence. […] MTT (3-(4, 5-dimethylthiazol-2-yl)-2, 5-diphenyltetrazolium bromide) (Cat. No. 1334GR001; BioFroxx) assay was conducted in order to examine viability. The IC50 values were fitted using GraphPad Prism 7.0.

JAK2^V617F = JAK2^V617F bone marrow transplantation (BMT) myelofibrosis model; type: in vivo, BALB/c mice; settings: for inhibition of splenomegaly: figure prints it with a minus sign over Spleen Wight (mg); for median survival time: vehicle 133.5 days; for BM Reticulin, fibrosis grade: bone marrow, WHO grading, vehicle MF-2
[2] = system: normal human CD34^+ cells; experiment: Normal human CD34+ cells from PB mononuclear cells of healthy donors; type: cell-based; settings: 48 h
Description: as §1, §2

JAK1/JAK2 [3] = experiment: Cytokine-stimulated cell-based assay, G-CSF-induced p-STAT3 in HEL cells; settings: Homo sapiens
Description: To further determine the selectivity of FM to inhibit different JAK isotypes in cell lines, we performed a series of cytokine-stimulated cell-based assays and assessed the signal transduction of JAK subtypes.
(A) Inhibition of cytokine induced JAK auto-phosphorylation by FM in HEL cell lines. Raw data about HEL (B) and Ba/F3-JAK2^V617F (C) cells were supplemented with different concentrations of FM for cell cycle analysis. […] (F) p-FLT3, p-STAT5, and p-ERK in Molm-13 cell line were also assessed after 3 hours exposure with increasing concentrations of FM.

Question: What does the source list for Cc1cnc(Nc2ccc(N3CCC(N(C)CCO)CC3)c(F)c2)nc1-c1cnn(C(C)C)c1 [FM, 2-((1-(2-fluoro-4-((4-(1-isopropyl-1H-pyrazol-4-yl)-5-methylpyrimidin-2-yl)amino)phenyl)piperidin-4-yl)(methyl)amino)ethan-1-ol]?
Answer: IC50 (JAK1/TYK2 pathway): > 5 µM; CD34^+ cells in peripheral blood (CD34^+ cells): significantly inhibited; IC50 (JAK1/JAK2 [1]): 0.39 µM; IC50 (Molm-13): 0.06 ± 0.03 µM; inhibition of splenomegaly (JAK2^V617F; 15 mg/kg bid p.o.): 97.11%; median survival time (JAK2^V617F; 15 mg/kg bid p.o.): > 180 days; inhibition of splenomegaly (JAK2^V617F; 30 mg/kg bid p.o.): 101.62%; median survival time (JAK2^V617F; 30 mg/kg bid p.o.): > 180 days; inhibition of splenomegaly (JAK2^V617F; 45 mg/kg bid p.o.): 101.24%; median survival time (JAK2^V617F; 45 mg/kg bid p.o.): > 180 days; BM Reticulin, fibrosis grade (JAK2^V617F; 30 mg/kg): non-MF; BM Reticulin, fibrosis grade (JAK2^V617F; 45 mg/kg): non-MF; effect on normal human CD34^+ cells [2]: general inhibitory effect; IC50 (JAK1/JAK2 [3]): 0.46 µM
